Experimental data published in patent publication US7309701B2, “Pyridazinone derivatives as pharmaceuticals and pharmaceutical compositions containing them” (Sanofi-Aventis Deutschland GmbH, priority 2002, dated 2007).

target: human recombinant GSK-3β (Homo sapiens, UniProt P49841); assay: GSK-3β activity, AlphaScreen with primed glycogen synthase substrate peptide; format: biochemical; details: not given
Experimental: GSK-β activity was measured using human recombinant GSK-3β and a primed (pre-phosphorylated) substrate peptide (derived from glycogen synthase and containing the phosphorylation sites 3a, b, and c) on basis of the AlphaScreen technology in 384-well plate format (small volume plate, white, GREINER).

Sequence of human recombinant GSK-3β (P49841 whole entry): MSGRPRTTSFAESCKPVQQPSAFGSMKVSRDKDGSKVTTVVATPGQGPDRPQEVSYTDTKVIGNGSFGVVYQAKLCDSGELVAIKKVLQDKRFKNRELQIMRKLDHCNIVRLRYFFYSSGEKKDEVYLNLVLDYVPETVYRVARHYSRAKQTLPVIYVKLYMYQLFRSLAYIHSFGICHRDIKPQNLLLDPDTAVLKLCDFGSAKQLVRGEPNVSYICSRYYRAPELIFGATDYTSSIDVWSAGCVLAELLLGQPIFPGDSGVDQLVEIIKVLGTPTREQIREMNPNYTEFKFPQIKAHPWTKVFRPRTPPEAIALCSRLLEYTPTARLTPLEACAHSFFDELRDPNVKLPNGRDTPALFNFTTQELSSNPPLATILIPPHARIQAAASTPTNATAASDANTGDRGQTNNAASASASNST

**Q.** With O=C(NCc1ccc(Cl)cc1)c1cc(-c2ccc(O)c(F)c2)n[nH]c1=O [Example 183, 6-(3-Fluoro-4-hydroxy-phenyl)-3-oxo-2,3-dihydro-pyridazine-4-carboxylic acid 4-chloro-benzylamide] as the molecule, how does the IC50 read?
**A.** 39 nM

**Q.** For CCCCNc1nccc(-c2cc(C(=O)NCCCc3cccnc3)c(=O)[nH]n2)n1 [Example 220, 6-(2-Butylamino-pyrimidin-4-yl)-3-oxo-2,3-dihydro-pyridazine-4-carboxylic acid (3-pyridin-3-yl-propyl)-amide], which IC50 is on record?
**A.** 36 nM

**Q.** For O=C(NCc1ccc(F)cc1F)c1cc(-c2ccncc2)n[nH]c1=O [Example 117, 3-Oxo-6-pyridin-4-yl-2,3-dihydro-pyridazine-4-carboxylic acid 2,4-difluoro-benzylamide;compound withtrifluoro-acetic acid], which IC50 is on record?
**A.** 65 nM

same assay, conditions: human recombinant GSK-3β, 10 μM ATP, 60 min at room temperature, AlphaScreen; read-out: IC50

**Q.** With O=C(NCc1ccc(Br)cc1)c1cc(-c2ccncc2)n[nH]c1=O [Example 75, 3-Oxo-6-pyridin-4-yl-2,3-dihydro-pyridazine-4-carboxylic acid 4-bromo-benzylamide;compound withtrifluoro-acetic acid] as the molecule, how does the IC50 read?
**A.** 380 nM

**Q.** With O=C(NCc1ccc(Cl)cc1)c1cc(-c2ccnc(NCCN3CCOCC3)n2)n[nH]c1=O [Example 175, 6-[2-(2-Morpholin-4-yl-ethylamino)-pyrimidin-4-yl]-3-oxo-2,3-dihydro-pyridazine-4-carboxylic acid 4-chloro-benzylamide;compound withtrifluoro-acetic acid] as the molecule, how does the IC50 read?
**A.** 17 nM

**Q.** Which IC50 does the source give for O=C(Nc1ccncc1)c1ccc(CNC(=O)c2cc(-c3ccncc3)n[nH]c2=O)cc1 [Example 156, 3-Oxo-6-pyridin-4-yl-2,3-dihydro-pyridazine-4-carboxylic acid 4-(pyridin-4-ylcarbamoyl)-benzylamide;compound withtrifluoro-acetic acid] here?
**A.** 86 nM

**Q.** With CCCCNc1nccc(-c2cc(C(=O)NCCCN3CCN(C)CC3)c(=O)[nH]n2)n1 [Example 218, 6-(2-Butylamino-pyrimidin-4-yl)-3-oxo-2,3-dihydro-pyridazine-4-carboxylic acid [3-(4-methyl-piperazin-1-yl)-propyl]-amide;compound withtrifluoro-acetic acid] as the molecule, how does the IC50 read?
**A.** 22 nM

**Q.** For COc1cc(-c2cc(C(=O)NCCCc3cccnc3)c(=O)[nH]n2)ccc1O [Example 49, 6-(4-Hydroxy-3-methoxy-phenyl)-3-oxo-2,3-dihydro-pyridazine-4-carboxylic acid (3-pyridin-3-yl-propyl)-amide], which IC50 is on record?
**A.** 1 nM

**Q.** With O=C(NCc1cccnc1)c1cc(-c2ccncc2)n[nH]c1=O [Example 14, 3-oxo-6-pyridin-4-yl-N-(pyridin-3-ylmethyl)-2,3-dihydropyridazine-4-carboxamide] as the molecule, how does the IC50 read?
**A.** 97 nM

**Q.** With Cc1cc(-c2cc(C(=O)NCCCc3cccnc3)c(=O)[nH]n2)cc(C)c1O [Example 48, 6-(4-Hydroxy-3,5-dimethyl-phenyl)-3-oxo-2,3-dihydro-pyridazine-4-carboxylic acid (3-pyridin-3-yl-propyl)-amide] as the molecule, how does the IC50 read?
**A.** 36 nM

**Q.** For O=C(NCc1ccc(Cl)cc1)c1cc(-c2ccc(O)c(Cl)c2)n[nH]c1=O [Example 180, 6-(3-Chloro-4-hydroxy-phenyl)-3-oxo-2,3-dihydro-pyridazine-4-carboxylic acid 4-chloro-benzylamide], which IC50 is on record?
**A.** 227 nM

**Q.** For CNc1cc(-c2cc(C(=O)NCc3ccc(Cl)cc3)c(=O)[nH]n2)ccn1 [Example 206, 6-(2-Methylamino-pyridin-4-yl)-3-oxo-2,3-dihydro-pyridazine-4-carboxylic acid 4-chloro-benzylamide], which IC50 is on record?
**A.** 30 nM

**Q.** For Cc1cc(-c2cc(C(=O)NCc3ccc(Cl)cc3)c(=O)[nH]n2)ccc1O [Example 155], which IC50 is on record?
**A.** 10300 nM

**Q.** With COc1cc(-c2cc(C(=O)NCc3ccc(C(=O)O)cc3)c(=O)[nH]n2)ccc1O [Example 225, 4-({[6-(4-Hydroxy-3-methoxy-phenyl)-3-oxo-2,3-dihydro-pyridazine-4-carbonyl]-amino}-methyl)-benzoic acid] as the molecule, how does the IC50 read?
**A.** 9 nM

**Q.** Which IC50 does the source give for C[C@@H](Nc1nccc(-c2cc(C(=O)NCCCc3ccccc3)c(=O)[nH]n2)n1)c1ccccc1 [Example 215, R-3-Oxo-6-[2-(1-phenyl-ethylamino)-pyrimidin-4-yl]-2,3-dihydro-pyridazine-4-carboxylic acid(3-phenyl-propyl)-amide] here?
**A.** 24 nM

**Q.** For CCCCNc1nccc(-c2cc(C(=O)NCc3cccnc3)c(=O)[nH]n2)n1 [Example 219, 6-(2-Butylamino-pyrimidin-4-yl)-3-oxo-2,3-dihydro-pyridazine-4-carboxylic acid(pyridin-3-ylmethyl)-amide], which IC50 is on record?
**A.** 29 nM

**Q.** Which IC50 does the source give for COc1cc(-c2cc(C(=O)NCc3ccc(Cl)cc3)c(=O)[nH]n2)ccc1O [Example 41, 6-(4-Hydroxy-3-methoxy-phenyl)-3-oxo-2,3-dihydro-pyridazine-4-carboxylic acid 4-chloro-benzylamide] here?
**A.** 2300 nM

**Q.** For O=C(NCc1ccc(Cl)cc1F)c1cc(-c2ccncc2)n[nH]c1=O [Example 116, 3-Oxo-6-pyridin-4-yl-2,3-dihydro-pyridazine-4-carboxylic acid 4-chloro-2-fluoro-benzylamide;compound withtrifluoro-acetic acid], which IC50 is on record?
**A.** 250 nM

**Q.** Which IC50 does the source give for O=C(NCc1ccc(C(F)(F)F)cc1)c1cc(-c2ccncc2)n[nH]c1=O [Example 112, 3-Oxo-6-pyridin-4-yl-2,3-dihydro-pyridazine-4-carboxylic acid 4-trifluoromethyl-benzylamide;compound withtrifluoro-acetic acid] here?
**A.** 123 nM

**Q.** With O=C(NCc1ccc(N2CCOCC2)cc1)c1cc(-c2ccncc2)n[nH]c1=O [Example 17, N-(4-morpholin-4-ylbenzyl)-3-oxo-6-pyridin-4-yl-2,3-dihydropyridazine-4-carboxamide] as the molecule, how does the IC50 read?
**A.** 251 nM

**Q.** Which IC50 does the source give for O=C(NCCCc1cccnc1)c1cc(-c2ccc(O)cc2)n[nH]c1=O [Example 164, 6-(4-Hydroxy-phenyl)-3-oxo-2,3-dihydro-pyridazine-4-carboxylic acid (3-pyridin-3-yl-propyl)-amide] here?
**A.** 7 nM

**Q.** Which IC50 does the source give for Cc1cc(-c2cc(C(=O)NCc3ccc(C(=O)O)cc3)c(=O)[nH]n2)cc(C)c1O [Example 32, 4-({[6-(4-Hydroxy-3,5-dimethyl-phenyl)-3-oxo-2,3-dihydro-pyridazine-4-carbonyl]-amino}-methyl)-benzoic acid] here?
**A.** 5 nM

**Q.** With CCNc1nccc(-c2cc(C(=O)NCc3ccc(Cl)cc3)c(=O)[nH]n2)n1 [Example 190, 6-(2-Ethylamino-pyrimidin-4-yl)-3-oxo-2,3-dihydro-pyridazine-4-carboxylic acid 4-chloro-benzylamide] as the molecule, how does the IC50 read?
**A.** > 1000 nM

**Q.** With O=C(NCc1ccc(Cl)cc1)c1cc(-c2cc(F)c(O)c(F)c2)n[nH]c1=O [Example 182, 6-(3,5-Difluoro-4-hydroxy-phenyl)-3-oxo-2,3-dihydro-pyridazine-4-carboxylic acid 4-chloro-benzylamide] as the molecule, how does the IC50 read?
**A.** 170 nM

system: Tau protein; assay: Tau-phosphorylation: inhibition of phosphorylation of the Tau protein in adult rat cortex sections; format: cell-based; details: inhibition of Tau phosphorylation (Ser396/404, antibody AD2), 2 h incubation at 37° C.
Experimental: The compounds' activities were determined by measuring the inhibition of phosphorylation of the Tau protein in adult rat cortex sections. The cortex sections having a thickness of 300 μm were prepared from 8-10-week old male OFA rats (Iffa-Credo), sacrificed by decapitation. They were incubated in 5 ml of DMEM medium containing pyruvate and glucose 4.5 g/l at 37° C. for 40 min. The sections were then washed twice with the medium, distributed into microtubes (50 μl in 500 μl of medium with or without test compounds), and incubated at 37° C., with stirring. Two hours later, the experiment was stopped by centrifugation. The sections were washed, sonicated and centrifuged at 18300 g, for 15 min at 4° C. The concentration of proteins in supernatant was determined by a commercial assay (BCA Protein Assay, Pierce) based on the Lowry method. The samples, denatured beforehand for 10 min at 70° C., were separated on a 4-12% Bis-Tris vertical gel in the presence of MOPS-SDS buffer and electrotransferred onto nitrocellulose membrane. Immunolabeling was performed with their monoclonal antibody AD2 which specifically recognizes the phosphorylated epitopes Ser396/404 of the Tau protein. The immunoactive proteins were visualized by adding a second antibody directed against the mouse IgG's and coupled to peroxidase and a chemiluminescent substrate. The autoradiograms obtained were finally quantified using the ‘GeneTools’ software from Syngene (GeneGnome, Ozyme) in order to determine an IC50.

**Q.** For O=C(NCc1ccc(Cl)cc1Cl)c1cc(-c2ccc(O)cc2)n[nH]c1=O [Example 22, N-(2,4-Dichlorbenzyl)-3-oxo-6-[4-(hydroxy)phenyl]-2,3-dihydropyridazine-4-carboxylic acid], which IC50 is on record?
**A.** 22 µM

**Q.** For O=C(NCc1ccc(Cl)cc1)c1cc(Cl)n[nH]c1=O [Example 43, 6-Chloro-3-oxo-2,3-dihydro-pyridazine-4-carboxylic acid 4-chloro-benzylamide], which IC50 is on record?
**A.** 2.2 µM

system: not given; assay: not given; details: not given

**Q.** Which melting point does the source give for O=C(NCCc1ccc(Cl)cc1Cl)c1cc(-c2ccncc2)n[nH]c1=O [Example 6, N-[2-(2,4-dichlorophenyl)ethyl]-3-oxo-6-pyridin-4-yl-2,3-dihydropyridazine-4-carboxamide] here?
**A.** 202 °C

**Q.** Which melting point does the source give for O=C(NCc1ccc(Cl)cc1Cl)c1cc(-c2ccccc2)n[nH]c1=O [Example 1, N-(2,4-dichlorobenzyl)-3-oxo-6-phenyl-4-yl-2,3-dihydropyridazine-4-carboxamide] here?
**A.** ~ 258 °C

**Q.** With O=C(NCc1cccnc1)c1cc(-c2ccncc2)n[nH]c1=O [Example 14, 3-oxo-6-pyridin-4-yl-N-(pyridin-3-ylmethyl)-2,3-dihydropyridazine-4-carboxamide] as the molecule, how does the melting point read?
**A.** 262 °C

**Q.** Which melting point does the source give for CCCCNC(=O)c1cc(-c2ccncc2)n[nH]c1=O [Example 12, 3-oxo-6-pyridin-4-yl-N-(n-butyl)-2,3-dihydropyridazine-4-carboxamide] here?
**A.** 209 °C

**Q.** Which melting point does the source give for CCOC(=O)CCNC(=O)c1cc(-c2ccncc2)n[nH]c1=O [Example 13, Ethyl 3-[(3-oxo-6-pyridin-4-yl-2,3-dihydropyridazine-4-carbonyl)amino]propionate] here?
**A.** 180 °C

**Q.** For O=C(NCc1ccccc1)c1cc(-c2ccncc2)n[nH]c1=O [Example 3, N-benzyl-3-oxo-6-pyridin-4-yl-2,3-dihydropyridazine-4-carboxamide], which melting point is on record?
**A.** 258 °C

**Q.** For O=C(NCc1cccc(C(F)(F)F)c1)c1cc(-c2ccncc2)n[nH]c1=O [Example 9, 3-oxo-6-pyridin-4-yl-N-[3-(trifluoromethyl)benzyl]-2,3-dihydropyridazine-4-carboxamide], which melting point is on record?
**A.** 224 °C

**Q.** Which melting point does the source give for O=C(NCc1ccc(N2CCOCC2)cc1)c1cc(-c2ccncc2)n[nH]c1=O [Example 17, N-(4-morpholin-4-ylbenzyl)-3-oxo-6-pyridin-4-yl-2,3-dihydropyridazine-4-carboxamide] here?
**A.** 252 °C

**Q.** With O=C(NCc1ccccn1)c1cc(-c2ccncc2)n[nH]c1=O [Example 15, 3-oxo-6-pyridin-4-yl-N-(pyridin-2-ylmethyl)-2,3-dihydropyridazine-4-carboxamide] as the molecule, how does the melting point read?
**A.** 242 °C
